“Also recorded” adds a separate entry of the source.
How the values were obtained:
[1] = molecular target: Acid Ceramidase (AC) (Rattus norvegicus (Rat), UniProt Q6P7S1); test: Acid ceramidase inhibition, recombinant rat AC, LC-MS; assay type: biochemical; conditions: read-out: r-AC % inhib. @ 10 μM
Experimental: The PCR (High Fidelity PCR Master, Roche) product was subcloned into a pEF6-[…] vector (Invitrogen) to construct a mammalian expression vector encoding […]-tagged rat AC. HEK293 cells were transfected with pEF6-rAC-[…] using Super-Fect reagent (Qiagen) and screened with G418 (0.3 mg/mL). Cells were suspended in 20 mM Tris HCl (pH 7.5) containing 0.32M sucrose, sonicated and centrifuged at 800×g for 15 minutes at 4° C. The supernatants were centrifuged again at 12,000×g for 30 minutes at 4° C. The pellets were suspended in phosphate-buffered saline (PBS) and subjected to 2 freeze-thaw cycles at -80° C. The suspensions were centrifuged at 105,000×g for 1 hour at 4° C. The supernatants containing recombinant AC were kept at -80° C. until use. Protein concentration was measured using the bicinchoninic acid (BCA) assay (Pierce). […] Reactions were stopped by addition of a mixture of chloroform/methanol (2:1, vol/vol) containing 1 nmol of heptadecanoic acid (HDA; NuChek Prep). […] HDA was eluted on an XDB Eclipse C18 column isocratically at 2.2 mL/min for 1 minute with a solvent mixture of 95% methanol and 5% water, both containing 0.25% acetic acid and 5 mM ammonium acetate. The column temperature was 50° C. Electrospray ionization (ESI) was in the negative mode, capillary voltage as 4 kV, and fragmentor voltage was 100 V. N2 was used as drying gas at a flow rate of 13 L/min and a temperature of 350° C. Nebulizer pressure was set at 60 psi. We monitored [M-H]- in the selected-ion monitoring (SIM) mode using HDA as internal standard. Calibration curves were generated using commercial lauric acid (Nu-Chek Prep; m/z=199).

[2] = tested on: UVB-induced inflammation; test: UV-B irradiation model in rats, plantar test; assay type: in vivo, rat
Experimental: Male Sprague Dawley rats (150-175 g, Charles River, Calco, Italy) were anaesthetized with a mixture of Tiletamine (15 mg/Kg) and Zolazepam (15 mg/Kg) administered in a single intra-peritoneal injection. Rats were then placed on their backs and shrouded in a UV opaque material with only the relevant surface of the plantar right hind paw exposed, perpendicular to the narrowband UVB light source situated above the level of the limb. The UVB source used for all experiments consisted of a bank of four TL01 fluorescent tubes (Philips, UK, λmax=312 nm) spaced 2.5 cm apart producing an even field of irradiation. The irradiance produced by the bulbs during each irradiation was determinate at the distance of the limb from the light source using a calibrate meter (I[…] with SEL240/UVB-1/TD filter, ABLE Instruments & Controls Ltd, UK). From this, the doses of UVB to which the rats were exposed were calculated. After plantar irradiation, nociceptive withdrawal responses to both thermal and mechanical stimuli were tested. Heat hypersensitivity was assessed using the rat plantar test equipment (Ugo Basile, Italy) following the method described by Hargreaves et al. (1988). […] Uninjured paw was always assessed first. […] The withdrawal threshold is calculated as the average of three consecutive tests with at list 5 minutes between each test. […]

[3] = tested on: DNFB-induced dermatitis; test: DNFB contact dermatitis in mice, ear thickness; assay type: in vivo, mouse
Experimental: 2,4-dinitrofluorobenzene (DNFB) (Sigma-Aldrich, Italy) was dissolved in acetone. On day 1 and 2, mice (CD1, 25-30 g, Charles River, Calco, Italy) were sensitized on the skin of the abdomen with hapten (20 μL of 0.5% DNFB). After 5 days, on day 7, mice were challenged with hapten (20 μL of 0.2% DNFB) in the earlobe and treated with drugs to be tested. Control group received the vehicle used to dissolve drugs. Mice (five per group) were placed in a plastic cage. On day 8, ear thickness was determined after challenge using a caliper. Results are expressed as absolute ear thickness.
Fresh drug suspensions of compound 6 were prepared immediately before use in a vehicle consisting of petrolatum plus 5% lauric acid and given in a volume of 20 μL/mouse. Mice were treated with different concentrations of compound 6 or vehicle together with DNFB challenge on […].
Compound 6 and the reported β-lactone NAAA inhibitor (S)-OOPP (Solorzano et al., Proceedings of the National Academy of Science USA 2009, 106, 20966-20971; Solorzano et al., Journal of Medicinal Chemistry 2010, 53, 5770-5781) were tested in this model for their contact sensitivity response. Fresh drug solutions of (S)-OOPP and compound 6 were prepared immediately before use in polyethylene glycol 400 (PEG 400) and given in a volume of 20 μL/ear. Mice were treated with different concentrations of (S)-OOPP, 0.1% compound 6 or vehicle each day for 7 days. Ear thickness was determined on day 0 and every day before challenge using a caliper. Results are expressed as absolute ear thickness.
The methods included the following. Dermatitis was produced in mice using 2-4 dinitrofluorobenzene (DNFB) as described by Buckley and Nijkamp (1994), Am J Respir Grit Care Med 149:400-7. Mice were sensitized on two consecutive days with a 0.5% DNFB solution applied to the shaved abdomen. At day 8, the ears were challenged with a 0.2% DNFB solution. Ear thickness was determined by using a micrometer. Scratching was evaluated as number of episodes per 60 minutes period. Data were analysed by ANOVA followed by the Bonferroni's test. See also Hargreaves K, et al (1988), Pain 32: 77-88 for related information.

[4] = established DNFB-induced ear edema
[5] = repeated dosing, 8 days before DNFB challenge

Sequence of Acid Ceramidase (AC) (Q6P7S1 21-394): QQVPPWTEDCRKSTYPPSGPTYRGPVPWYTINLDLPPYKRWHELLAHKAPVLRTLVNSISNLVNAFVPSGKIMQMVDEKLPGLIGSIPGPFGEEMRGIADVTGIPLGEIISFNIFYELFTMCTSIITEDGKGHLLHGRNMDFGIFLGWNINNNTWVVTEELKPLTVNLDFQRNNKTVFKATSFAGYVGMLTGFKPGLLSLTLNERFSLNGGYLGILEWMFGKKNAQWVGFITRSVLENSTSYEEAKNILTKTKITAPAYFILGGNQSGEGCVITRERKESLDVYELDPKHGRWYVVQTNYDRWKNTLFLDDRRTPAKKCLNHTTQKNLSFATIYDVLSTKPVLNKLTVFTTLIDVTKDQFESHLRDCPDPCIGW

inhibition at 10 µM [1]: < 10%
SMILES: C[C@@H]1OC(=O)[C@@H]1NC(=O)OCCCCCc1ccccc1 [Example 6, 5-phenylpentyl-[(2S,3R)-2-methyl-4-oxooxetan-3-yl]-carbamate]
Thermal hyperalgesia induced by irradiation with 250 mJ/cm^2 of UVB ([2]; 10 and 30% w/w, vs vehicle): significantly reduced
UVB-induced inflammation ([2]; topical suspension in vaseline oil plus 5% lauric acid): dose-dependently reduced the UVB-induced inflammation
Doses of full efficacy, single dosing protocol [3, 4]: 10-30%
Effective dose-range, repeated dosing protocol [3, 4]: 0.01-1%
Time of administration to full efficacy, repeated dosing [3, 4]: 3 days
Ear swelling 24 h after DNFB challenge ([3]; mice, 1-30% w/w suspension in petrolatum plus 5% lauric acid): dose-dependently inhibited ear swelling
Contact sensitivity response (ear swelling) ([3]; mice, PEG 400 solution, each day for 7 days, (S)-OOPP 0.1-10% w/v, compound 6 0.1%): significant decrease in ear swelling
Established DNFB-induced ear edema (therapeutic effect), repeated dosing ([3]; mice, topical, repeated dosing): reverses ear thickness increase; also recorded: reverses established DNFB-induced ear edema
Established DNFB-induced ear thickness increase, single dosing ([3]; mice, topical, single administration): reverses ear thickness increase; also recorded: efficacy is also noted
Doses of complete efficacy, prophylactic protocol [3, 5]: 0.1-1%
Prevention of DNFB-induced ear edema (prophylactic effect) [3, 5]: prevents the development of DNFB-induced symptoms; also recorded: prevents DNFB-induced increased ear edema

Reference: US9353075B2, “Disubstituted beta-lactones as inhibitors of N-acylethanolamine acid amidase (NAAA)” (The Regents of the University of California, priority 2011, dated 2016)
